From PubChem BioAssay AID328 (DTP/NCI, 2004) come the findings set out here.

Where “and” joins values, the source holds several entries; their conditions need not be identical. Identical values can stand only once. Inconclusive results and toxic doses are left out.

This assay has as its system BDF1 mice, P388 leukemia ip, median survival T/C. The assay is described as follows: NCI In Vivo Anticancer Drug Screen. Data for tumor model P388 Leukemia (intraperitoneal) in B6D2F1 (BDF1) mice. As to conditions: endpoint: median survival time, higher = longer survival. The essentials: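 Read-out is survival of treated animals expressed relative to the vehicle group, as a T/C ratio.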

[1] abbreviates: dose: 100.0 mg/kg/injection, schedule: Q04DX003 (ip), vehicle: Klucel (hydroxypropylcellulose) (HPC).
The mark [2] stands for this setting: dose: 200.0 mg/kg/injection, schedule: Q04DX003 (ip), vehicle: Klucel (hydroxypropylcellulose) (HPC).
The mark [3] stands for this setting: dose: 25.0 mg/kg/injection, schedule: Q01DX009 (ip), vehicle: saline.
[4] abbreviates: dose: 50.0 mg/kg/injection, schedule: Q01DX009 (ip), vehicle: saline.
The mark [5] stands for this setting: dose: 100.0 mg/kg/injection, schedule: Q01DX009 (ip), vehicle: saline.

Turning to `COc1cc2cc(c1Cl)N(C)C(=O)CC(OC(C)=O)C1(C)OC1C(C)C1CC(O)(NC(=O)O1)C(OC)C=C/C=C(\C)C2` (stereo unspecified), the T/C is, setting by setting: (dose: 0.2 micrograms/kg/injection, schedule: Q01DX009 (ip), vehicle: saline + alcohol) 90 % of control; (dose: 0.4 micrograms/kg/injection, schedule: Q01DX009 (ip), vehicle: saline + alcohol) 95 % of control; (dose: 0.8 micrograms/kg/injection, schedule: Q01DX009 (ip), vehicle: saline + alcohol) 95 % of control and 110 % of control; (dose: 1.5 micrograms/kg/injection, schedule: Q01DX009 (ip), vehicle: saline + alcohol) 150 % of control; (dose: 1.6 micrograms/kg/injection, schedule: Q01DX009 (ip), vehicle: saline + alcohol) 100 % of control; (dose: 3.1 micrograms/kg/injection, schedule: Q01DX009 (ip), vehicle: saline + alcohol) 110 % of control. Further, the T/C is 150 % of control (dose: 6.2 micrograms/kg/injection, schedule: Q01DX009 (ip), vehicle: saline + alcohol); 158 % of control (dose: 12.5 micrograms/kg/injection, schedule: Q01DX009 (ip), vehicle: saline + alcohol); 170 % of control and 173 % of control (dose: 25.0 micrograms/kg/injection, schedule: Q01DX009 (ip), vehicle: saline + alcohol); 183 % of control (2×) and 190 % of control (dose: 50.0 micrograms/kg/injection, schedule: Q01DX009 (ip), vehicle: saline + alcohol); 230 % of control and 204 % of control (dose: 100.0 micrograms/kg/injection, schedule: Q01DX009 (ip), vehicle: saline + alcohol); 100 % of control (dose: 200.0 micrograms/kg/injection, schedule: Q01DX009 (ip), vehicle: saline + alcohol).

As for `Cc1cc(C)nc(NS(=O)(=O)c2ccc(N=Nc3nc4[nH]c(N)nc(=S)c4[nH]3)cc2)n1`, the T/C is 113 % of control (dose: 1.56 mg/kg/injection, schedule: Q01DX009 (ip), vehicle: Klucel (hydroxypropylcellulose) (HPC)); 117 % of control (dose: 3.13 mg/kg/injection, schedule: Q01DX009 (ip), vehicle: Klucel (hydroxypropylcellulose) (HPC)); 112 % of control and 113 % of control (dose: 6.25 mg/kg/injection, schedule: Q01DX009 (ip), vehicle: Klucel (hydroxypropylcellulose) (HPC)); 116 % of control (dose: 50.0 mg/kg/injection, schedule: Q04DX003 (ip), vehicle: Klucel (hydroxypropylcellulose) (HPC)); 108 % of control under setting [1]; 104 % of control under setting [2].

Regarding `O=c1nc(Oc2ccccc2)nc2ccc(Cl)nn12`, the T/C was 105 % of control (dose: 50.0 mg/kg/injection, schedule: Q01DX009 (ip), vehicle: saline with Tween-80) and 116 % of control (dose: 100.0 mg/kg/injection, schedule: Q01DX009 (ip), vehicle: saline with Tween-80).

With `O=[N+]([O-])c1cc([N+](=O)[O-])c(NN(c2ccccc2)c2cccc3ccccc23)c([N+](=O)[O-])c1`, the T/C reads like this: under setting [1], 91 % of control; under setting [2], 116 % of control; (dose: 400.0 mg/kg/injection, schedule: Q04DX003 (ip), vehicle: Klucel (hydroxypropylcellulose) (HPC)) 87 % of control.

Consider `CC[C@@]1(O)C[C@H](OC2CC(N(C)C)C(OC3CC(O)C(OC4CCC(=O)C(C)O4)C(C)O3)C(C)O2)c2c(cc3c(c2O)C(=O)c2c(O)ccc(O)c2C3=O)[C@H]1C(=O)OC` (stereo partly specified), for which the T/C is, setting by setting: (dose: 0.39 mg/kg/injection, schedule: Q01DX009 (ip), vehicle: water) 111 % of control; (dose: 0.5 mg/kg/injection, schedule: Q01DX003 (ip), vehicle: saline) 163 % of control; (dose: 0.5 mg/kg/injection, schedule: Q01DX009 (ip), vehicle: water) 117 % of control; (dose: 0.65 mg/kg/injection, schedule: Q01DX009 (ip), vehicle: water) 152 % of control; (dose: 0.75 mg/kg/injection, schedule: Q01DX010 (ip), vehicle: saline) 170 % of control; (dose: 1.0 mg/kg/injection, schedule: Q01DX003 (ip), vehicle: saline) 190 % of control. The T/C is, setting by setting: (dose: 1.0 mg/kg/injection, schedule: Q01DX009 (ip), vehicle: saline) 154 % of control; (dose: 1.0 mg/kg/injection, schedule: Q01DX009 (ip), vehicle: water) 86 % of control; (dose: 1.0 mg/kg/injection, schedule: Q04DX003 (ip), vehicle: water) 102 % of control; (dose: 1.08 mg/kg/injection, schedule: Q01DX009 (ip), vehicle: water) 177 % of control and 180 % of control; (dose: 1.5 mg/kg/injection, schedule: Q01DX010 (ip), vehicle: saline) 175 % of control; (dose: 1.73 mg/kg/injection, schedule: Q04DX003 (ip), vehicle: other) 155 % of control. Moreover, the T/C reads like this: (dose: 1.8 mg/kg/injection, schedule: Q01DX009 (ip), vehicle: water) 225 % of control and 200 % of control; (dose: 2.0 mg/kg/injection, schedule: Q01DX003 (ip), vehicle: saline) 109 % of control; (dose: 2.0 mg/kg/injection, schedule: Q01DX009 (ip), vehicle: saline) 191 % of control; (dose: 2.0 mg/kg/injection, schedule: Q01DX009 (ip), vehicle: water) 90 % of control; (dose: 2.0 mg/kg/injection, schedule: Q04DX003 (ip), vehicle: water) 119 % of control; (dose: 2.88 mg/kg/injection, schedule: Q04DX003 (ip), vehicle: other) 186 % of control. The T/C was 90 % of control (dose: 3.0 mg/kg/injection, schedule: Q01DX010 (ip), vehicle: saline); 109 % of control (dose: 4.8 mg/kg/injection, schedule: Q04DX003 (ip), vehicle: other); 203 % of control (dose: 5.0 mg/kg/injection, schedule: Q04DX003 (ip), vehicle: water); 158 % of control (dose: 8.44 mg/kg/injection, schedule: Q01DX001 (ip), vehicle: water); 88 % of control (dose: 10.0 mg/kg/injection, schedule: Q04DX003 (ip), vehicle: water); 152 % of control (dose: 11.25 mg/kg/injection, schedule: Q01DX001 (ip), vehicle: water). For the same compound, the T/C reads like this: (dose: 13.33 mg/kg/injection, schedule: Q04DX003 (ip), vehicle: water) 117 % of control; (dose: 15.0 mg/kg/injection, schedule: Q01DX001 (ip), vehicle: water) 100 % of control; (dose: 20.0 mg/kg/injection, schedule: Q01DX001 (ip), vehicle: water) 50 % of control.

Regarding `COC1(F)C2(Cl)C=C(c3ccccc3)C1(Cl)C(Cl)=C2Cl` (stereo unspecified), the T/C by setting is: (dose: 100.0 mg/kg/injection, schedule: Q04DX002 (ip), vehicle: saline with Tween-80) 101 % of control; (dose: 200.0 mg/kg/injection, schedule: Q04DX002 (ip), vehicle: saline with Tween-80) 111 % of control; (dose: 400.0 mg/kg/injection, schedule: Q04DX002 (ip), vehicle: saline with Tween-80) 100 % of control.

Take `CC1OC(=O)C(C(C)C)NC(=O)C(C(C)C)OC(=O)C(C(C)C)NC(=O)C(C)OC(=O)C(C(C)C)NC(=O)C(C(C)C)OC(=O)C(C(C)C)NC(=O)C(C)OC(=O)C(C(C)C)NC(=O)C(C(C)C)OC(=O)C(C(C)C)NC1=O` (stereo unspecified): the T/C reads like this: (dose: 3.12 mg/kg/injection, schedule: Q04DX003 (ip), vehicle: Klucel (hydroxypropylcellulose) (HPC)) 100 % of control; (dose: 4.5 mg/kg/injection, schedule: Q01DX009 (ip), vehicle: saline) 162 % of control; (dose: 6.25 mg/kg/injection, schedule: Q04DX003 (ip), vehicle: Klucel (hydroxypropylcellulose) (HPC)) 107 % of control; (dose: 10.0 mg/kg/injection, schedule: Q01DX009 (ip), vehicle: saline) 183 % of control; (dose: 12.5 mg/kg/injection, schedule: Q04DX003 (ip), vehicle: Klucel (hydroxypropylcellulose) (HPC)) 169 % of control; (dose: 15.0 mg/kg/injection, schedule: Q01DX009 (ip), vehicle: saline) 177 % of control. The T/C (dose: 20.0 mg/kg/injection, schedule: Q01DX009 (ip), vehicle: Klucel (hydroxypropylcellulose) (HPC)) was 165 % of control.

Turning to `CC(CCl)OC(C)CCl` (stereo unspecified), the T/C reads like this: (dose: 100.0 mg/kg/injection, schedule: Q04DX002 (ip), vehicle: saline) 106 % of control; (dose: 200.0 mg/kg/injection, schedule: Q04DX002 (ip), vehicle: saline) 107 % of control; (dose: 400.0 mg/kg/injection, schedule: Q04DX002 (ip), vehicle: saline) 107 % of control.

As for `O=C1NCN(c2ccccc2)C12CCNCC2`, the T/C is 90 % of control under setting [3], 113 % of control under setting [4] and 100 % of control under setting [5].

For the compound `CCCCCCCCCCC[CH2][Hg][CH2]CCCCCCCCCCC`, the T/C under setting [1] is 91 % of control and the T/C under setting [2] is 100 % of control.

For `CC(=O)NC(CC(=O)O)C(=O)O` (stereo unspecified), the T/C reads like this: under setting [3], 95 % of control; under setting [4], 95 % of control; under setting [5], 105 % of control.
